In patent publication US10292958B2, “Lipid-containing compositions and methods of use thereof” (ASHA NUTRITION SCIENCES, INC., priority 2008, dated 2019):
Blank lines part the entries; values can stand above or below the compound they belong to.

Experiments:
[1] = cited from earlier work; for effect on blood cholesterol: saturated fats of chain-length 12, 14 and 16
ovulation = assay: Case study on ovulation, reproductive disorders; format: in vivo, human; conditions: person
Source text: In a host subject cessation of ovulation (as indicated by watery pale menstrual cycles), intense ovulation-related pains and anovulatry menstruation at extremely low omega-6 fatty acids in diet were observed; olive oil being the main fat source. It is hypothesized herein that this was due to deficiency of omega-6 derived prostaglandins, which aid ovulation.

[2] = tested on: inflammation, immunity, infection; conditions: menopausal person; 11 g LA; ALA reduced from 1.8 g to 1.2 g

Structure (SMILES): CCCCCCCCCCCC(=O)O [lauric acid]
effect on blood cholesterol [1]: elevate blood cholesterol

Structure (SMILES): CCCCCCCCCCCCCCCCCC(=O)O [Stearic acid]
lowering of cholesterol ([1]; in vivo): 21%

cessation of ovulation, ovulation-related pains, anovulatory menstruation (ovulation): same phenomenon was observed
Structure (SMILES): CC(C)Cc1ccc(C(C)C(=O)O)cc1 (stereo not shown) [Advil]

Structure (SMILES): CCCCCCCC/C=C\CCCCCCCC(=O)O [oleic acid]
lowering of LDL ([1]; in vivo): 15%

Structure (SMILES): CCCCCCCCCCCCCCCC(=O)O [palmitic acid]
effect on blood cholesterol [1]: elevate blood cholesterol

Structure (SMILES): CC/C=C\C/C=C\C/C=C\CCCCCCCC(=O)O [ALA, Alpha-linolenic Acid]
symptoms (spinal burning sensation, heat in the body, delayed wound healing, vaginal yeast infection) [2]: disappeared

Structure (SMILES): CCCCCCCCCCCCCC(=O)O [myristic acid]
effect on blood cholesterol [1]: elevate blood cholesterol
